Reference: US20210221785A1, “AMINO-PYRIMIDONYL DERIVATIVES, A PROCESS FOR THEIR PREPARATION AND PHARMACEUTICAL COMPOSITIONS CONTAINING THEM” (LES LABORATOIRES SERVIER, priority 2018, published 2021)

Key:
[1] = target: T1, His-His-USP7 (aa208-560, |C315A|) (Homo sapiens, UniProt Q93009, C315A); test: Evaluation of the inhibition of USP7 by the Fluorescence Intensity (FLINT) readings; assay type: biochemical; settings: 0.25 nM His-His-USP7, compound incubated 60 minutes at 30° C., 500 nM Ubiquitin-Rhodamine-110 substrate; 50% reduction in kinetic rate
T1 construct: His-His-USP7 (aa208-560, |C315A|); His-His (N)
T1 sequence (Q93009 208-560 C315A): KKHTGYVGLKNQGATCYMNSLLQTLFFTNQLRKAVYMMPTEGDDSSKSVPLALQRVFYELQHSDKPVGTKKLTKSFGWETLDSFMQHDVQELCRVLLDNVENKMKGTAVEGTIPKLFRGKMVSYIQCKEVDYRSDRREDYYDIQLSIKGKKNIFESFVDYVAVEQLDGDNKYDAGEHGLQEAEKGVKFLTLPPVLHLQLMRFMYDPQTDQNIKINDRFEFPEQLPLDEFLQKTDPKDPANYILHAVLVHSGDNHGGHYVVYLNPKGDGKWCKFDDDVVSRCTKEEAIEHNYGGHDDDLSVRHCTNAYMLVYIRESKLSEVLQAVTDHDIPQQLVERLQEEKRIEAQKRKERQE
Procedure, shortened: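 IC50 reflects 50% reduction in kinetic rate of rhodamine-110 release (Ex485/Em535, reads every 3 min over 21 min), normalised to DMSO and no-enzyme controls, from an 11-point 4-parameter fit. Substrate is 500 nM Ub-Rh110, added after 60 min, 30 °C preincubation of compound with 0.25 nM USP7 aa208–560 C315A. Buffer is Bicine pH 8.0 with 10% DMSO.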

[2] = system: Z138 mantle cell lymphoma tumour cell lines; test: In vitro cytotoxicity, MTT assay; assay type: cell-based; settings: Homo sapiens, Z138 cells exposed to the test compounds for 96 hours, cell viability vs DMSO treated cells
Procedure, shortened: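 Z138 cells exposed to compounds for 96 hours, then MTT added for 4 hours. Viable cells quantified from formazan absorbance at 540 nm.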

| IC50 [1] [nM] | SMILES | IC50 ([2]; Z-138, 96 h) [µM] | IC50 ([2]; Z-138) [µM] |
| --- | --- | --- | --- |
| 24.7 | COc1nccnc1C#C[C@@]1(F)CC[C@@H](C(=O)N2CCC(O)(Cn3cnc(Oc4ccc(F)cc4)c(N)c3=O)CC2)[C@H](c2ccccc2)C1 [Example 154, 5-amino-3-({1-[(1R,2R,4R)-4-fluoro-4-[2-(3-methoxypyrazin-2-yl)ethynyl]-2-phenylcyclohexanecarbonyl]-4-hydroxypiperidin-4-yl}methyl)-6-(4-fluorophenoxy)-3,4-dihydropyrimidin-4-one] | 0.016 | – |
| 82.2 | N#CCc1ccc(Oc2ncn(CC3(O)CCN(C(=O)[C@@H]4CCC(F)(F)C[C@H]4c4ccccc4)CC3)c(=O)c2N)cc1 [Example 117, (4-{[5-amino-1-({1-[(1R,2R)-4,4-difluoro-2-phenylcyclohexane-1-carbonyl]-4-hydroxypiperidin-4-yl}methyl)-6-oxo-1,6-dihydropyrimidin-4-yl]oxy}phenyl)acetonitrile] | 0.617 | – |

Further lines, the molecule ahead of its results:

| SMILES | IC50 [1] [nM] | IC50 ([2]; Z-138, 96 h) [µM] | IC50 ([2]; Z-138) [µM] |
| --- | --- | --- | --- |
| Nc1c(Oc2ccc(F)cc2)ncn(CC2(O)CCN(C(=O)[C@@H]3CC[C@@](O)(Cc4ccccn4)C[C@H]3c3ccccc3)CC2)c1=O (relative stereo) [Example 97, rel-5-amino-6-(4-fluorophenoxy)-3-[(4-hydroxy-1-{[(1R,2R,4S)-4-hydroxy-2-phenyl-4-(pyridin-2-ylmethyl)cyclohexyl]carbonyl}piperidin-4-yl)methyl]pyrimidin-4-one] | 38.2 | 0.497 | – |
| Nc1c(Oc2ccccc2)ncn(CC2(O)CCN(C(=O)[C@@H]3CCC(F)(F)C[C@H]3c3ccccc3)CC2)c1=O [Example 1, 5-amino-3-({1-[(1R,2R)-4,4-difluoro-2-phenylcyclohexane-1-carbonyl]-4-hydroxypiperidin-4-yl}methyl)-6-phenoxypyrimidin-4(3H)-one] | 43.7 | 0.0866 | – |
| COc1cc(Oc2ncn(CC3(O)CCN(C(=O)[C@@H]4CCC(F)(F)C[C@H]4c4ccccc4)CC3)c(=O)c2N)ccc1Cl [Example 12, 5-amino-6-(4-chloro-3-methoxy-phenoxy)-3-({1-[(1R,2R)-4,4-difluoro-2-phenylcyclohexane-1-carbonyl]-4-hydroxypiperidin-4-yl}methyl)pyrimidin-4(3H)-one] | 57.1 | – | 0.0909 |
| Cc1cccc(Oc2ncn(CC3(O)CCN(C(=O)[C@@H]4CCC(F)(F)C[C@H]4c4ccccc4)CC3)c(=O)c2N)c1 [Example 19, 5-amino-3-({1-[(1R,2R)-4,4-difluoro-2-phenylcyclohexane-1-carbonyl]-4-hydroxypiperidin-4-yl}methyl)-6-(3-methylphenoxy)pyrimidin-4(3H)-one] | 83.1 | 0.0716 | – |
| Nc1c(Oc2ccc(F)cc2)ncn(CC2(O)CCN(C(=O)[C@@H]3CCC(F)(F)C[C@H]3c3ccccc3)CC2(F)F)c1=O (stereo partly drawn) [Example 45, 5-amino-3-({1-[(1R,2R)-4,4-difluoro-2-phenylcyclohexane-1-carbonyl]-3,3-difluoro-4-hydroxypiperidin-4-yl}methyl)-6-(4-fluorophenoxy)pyrimidin-4(3H)-one] | 57 | 0.115 | – |
